The source of these data is patent US6613760B1, “Indole derivatives and their use as MCP-1 receptor antagonists” (AstraZeneca AB, priority 1999, dated 2003).

Test [1] concerns the target T1, hMCP-1 receptor (Homo sapiens, UniProt P41597).
T1 construct: endogenous in cells; host or cells: human PBMCs from fresh donor blood (whole cells)
T1 sequence (P41597 1-360 isoform P41597-2): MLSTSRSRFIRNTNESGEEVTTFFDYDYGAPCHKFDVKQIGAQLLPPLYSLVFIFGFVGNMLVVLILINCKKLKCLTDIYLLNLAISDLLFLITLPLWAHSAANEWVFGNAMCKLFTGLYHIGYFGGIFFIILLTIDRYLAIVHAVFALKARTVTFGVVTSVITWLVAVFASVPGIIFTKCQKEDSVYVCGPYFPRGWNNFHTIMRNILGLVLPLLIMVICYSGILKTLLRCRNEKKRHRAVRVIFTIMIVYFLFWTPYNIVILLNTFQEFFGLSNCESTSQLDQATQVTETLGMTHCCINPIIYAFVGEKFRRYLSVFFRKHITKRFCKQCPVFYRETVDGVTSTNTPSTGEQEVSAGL
Briefly: 125I MCP-1 binding to human peripheral blood mononuclear cells (PBMCs). The settings on record: 100 pM 125I-labeled MCP-1, 37° C. 60 minutes. The protocol: Fresh human blood (200 ml) was obtained from volunteer donors, collected into sodium citrate anticoagulant to give a final concentration of 0.38%. The blood was mixed with Sedimentation Buffer and incubated at 37° C. for 20 minutes. The supernatant was collected and centrifuged at 1700 rpm for 5 minutes (Sorvall RT6000D). The pellet obtained was resuspended in 20 ml RPMI/BSA (1 mg/ml) and 4×5 mls of cells were carefully layered over 4×5 mls of Lymphoprepa (Nycomed) in 15 ml centrifuge tubes. Tubes were spun at 1700 rpm for 30 minutes (Sorvall RT6000D) and the resultant layer of cells was removed and transferred to 50 ml Falcon tubes. The cells were washed twice in Lysis Buffer to remove any remaining red blood cells followed by 2 washes in RPMI/BSA. Cells were resuspended in 5 mls of Binding Buffer. Cell number was measured on a Coulter counter and additional binding buffer was added to give a final concentration of 1.25×10^7 PBMCs/ml. […]
Test compound potency was determined by assay in duplicate using six point dose-response curves and IC50 concentrations were determined.

For test [2], the system named is THP-1 cells. The experiment in a line: hMCP-1 mediated chemotaxis of THP-1 cells. The format is cell-based, human. The following applies: biphasic response. The protocol:
In vitro chemotaxis assays were performed using the human monocytic cell line THP-1. Cell migration through polycarbonate membranes was measured by enumerating those passing through either directly by Coulter counting or indirectly by use of a colourimetric viability assay measuring the cleavage of a tetrazolium salt by the mitochondrial respiratory chain (Scudiero D. A. et al. 1988, Cancer Res., 48, 4827-4833).
Chemoattractants were introduced into a 96-well microtitre plate which forms the lower well of a chemotaxis chamber fitted with a PVP-free 5 μm poresize polycarbonate adhesive framed filter membrane (NeuroProbe MB series, Cabin John, Md. 20818. USA) according to the manufacturer's instructions. […] The plate was incubated at 37° C. for 3 h and the absorbance of the soluble formazan product was read on a microtitre plate reader at 450 nm. The data was input into a spreadsheet, corrected for any random migration in the absence of chemoattractant and the average absorbance values, standard error of the mean, and significance tests were calculated. hMCP-1 induced concentration dependent cell migration with a characteristic biphasic response, maximal […]. […]

Test [3] relates to THP-1 cells. The experiment in a line: MCP-1 mediated calcium flux in THP-1 cells. The format is cell-based, human. The settings on record: stimulation of THP-1 cells with hMCP-1; read-out: EC50 of rise in [Ca2+]i. The protocol: The human monocytic cell line THP-1 as grown in a synthetic cell culture medium RPMI 1640 supplemented with 10% foetal calf serum, 6 mM glutamine and Penicillin-Streptomycin (at 50 μg streptomycin/ml, Gibco BRL). THP-1 cells were washed in HBSS (lacking Ca^2+ and Mg^2+)+1 mg/ml BSA and resuspended in the same buffer at a density of 3×10^6 cells/ml. The cells were then loaded with […] FURA-2/AM for 30 min at 37° C., washed twice in HBSS, and resuspended at 1×10^6 cells/mil. THP-1 cell suspension (0.9 ml) was added to a 5 ml disposable cuvette containing a magnetic stirrer bar and 2.1 ml of prewarmed (37° C.) HBSS containing 1 mg/ml BSA, 1 mM MgCl, and 2 mM CaCl2. The cuvette was placed in a fluorescence spectrophotometer (Perkin Elmer, Norwalk. Conn.) and preincubated for 4 min at 37° C. with stirring. Fluorescence was recorded over 70 sec and cells were stimulated by addition of hMCP-1 to the cuvette after 10 sec. [Ca^2+]i was measured by excitation at 340 nm and 380 nm alternately and subsequent measurement of the intensity of the fluorescence emission at 510 nm.
where the Kd for FURA-2 Ca^2+ complex at 37° C. was taken to be 224 nm. […]
In general terms: Calcium assays in cells follow changes in intracellular calcium, usually with a dye or a luminescent sensor.

The target in test [4] is T2, MCP-1 receptor B (CCR2B) (Homo sapiens, UniProt P41597).
T2 construct: expressed in transfected cells; host or cells: CHO-K1 (clone 7, CHO-CCR2B), membrane fragments
T2 sequence (P41597 1-360 isoform P41597-2): T1 sequence (P41597 1-360 isoform P41597-2)
The experiment in a line: hMCP-1 receptor binding assay, 125I MCP-1 on CHO-CCR2B cell membranes. An excerpt: The MCP-1 receptor B (CCR2B) cDNA was cloned by PCR from THP-1 cell RNA using suitable oligonucleotide primers based on the published MCP-1 receptor sequences (Charo et al., 1994, Proc. Natl. Acad. Sci. USA, 91, 2752). The resulting PCR products were cloned into vector PCR-II™ (InVitrogen, San Diego, Calif.). Error free CCR2B cDNA was subcloned as a Hind III-Not I fragment into the eukaryotic expression vector pCDNA3 (InVitrogen) to generate pCDNA3/CC-CKR2A and pCDNA3/CCR2B respectively.
Linearised pCDNA3/CCR2B DNA was transfected into CHO-K1 cells by calcium phosphate precipitation (Wigler et al., 1979, Cell, 16, 777). Transfected cells were selected by the addition of Geneticin Sulphate (G418, Gibco BRL) at 1 mg/ml, 24 hours after the cells had been transfected. Preparation of RNA and Northern blotting were carried out as described previously (Needham et al., 1995, Prot. Express. Purific., 6. 134). CHO-K1 clone 7 (CHO-CCR2B) was identified as the highest MCP-1 receptor B expressor.
CHO-CCR2B cells were grown in DMEM supplemented with 10% foetal calf serum, 2 mM glutamine. 1×Non-Essential Amino Acids. 1×Hypoxanthine and Thymidine Supplement and Penicillin-Streptomycin (at 50 μg streptomycin/ml, Gibco BRL). Membrane fragments were prepared using cell lysis/differential centrifugation methods as described previously (Siciliano et al., 1990, J. Biol. Chem., 265, 19658). […]

Usually IC50 stands for the concentration that gives 50% inhibition. With `CS(=O)(=O)NCCNC(=O)c1cccc2c1cc(C(=O)O)n2Cc1ccc(Cl)c(Cl)c1` [Compound 9], the IC50 in test [1] worked out at 640 nM.
The EC50 is the concentration at which the effect is half-maximal. By Kd is commonly meant the equilibrium constant for the complex coming apart. Low values mean higher affinity, high ones lower affinity. Consider “MCP-1: Human Monocyte Chemoattractant Protein-1, a C—C chemokine, ligand of the MCP-1 (CCR2) receptor”, for which the “concentration of maximal cell migration” value in test [2] is on record as 0.5-1.0 nm. The EC50 in test [3] was roughly 2 nM. This compound registered an IC50 in test [4] (cold competition with 100 pM 125I-labeled MCP-1, CHO-CCR2B membrane fragments) of 0.11 nM. Binding in test [4] (equilibrium binding, CHO-CCR2B membrane fragments) was put at a Kd of 0.12 nM.
